Data on 1 substance can be found in patent US6080542A, “Plant peptide transport gene” (priority 1997, dated 2000).

The subject of one assay is PB1X-2A. The assay can be described thus: Growth on peptides, parental strain. The class given is cell-based, Saccharomyces cerevisiae. Particulars: data not shown. As to the method: (§1) Thus, the peptide transport mutant PB1X-9B and deletion strain PB1X-2AΔ transformed with plasmids pPTF4 (ATPTR2A) or pDTF1 (ATPTR2B) were grown on various peptides to assess the specificity of the plant peptide transporter. In addition, untransformed PB1X-9B, PB1X-9B transformed with plasmid pJP9 encoding the above-described yeast peptide transport gene, PB1X-2AΔ and PB1X-2A, the ptr2^+ parental strain to PB1X-2AΔ strain, were also assayed. Each strain was grown overnight in SC media plus uracil (non-transformed) or minus uracil (transformed) plus amino acids to stationary phase and harvested by centrifugation. Cells were then washed twice with sterile dH2 O and resuspended at 5×10^6 cells/ml. 5 μl of each suspension was applied as a small spot to a 2 ml volume of solid media in a 24 well plate. All peptides were suspended in sterile, deionized water and added to an equal volume of SC medium plus the appropriate amino acids and uracil when required. The medium for each assay thus consisted of SC medium plus or minus uracil supplemented with 80 μM of a specific peptide and auxotrophic requirements minus the amino acid components of the added peptide. The plates were incubated at 30° C. for 72 hrs. and then scored for growth.

The subject of the next assay is PB1X-9B (pPTF4). As to the kind of experiment: Growth on peptides, mutant transformed with plant gene ATPTR2A. Format: cell-based, Saccharomyces cerevisiae. As to the method: as §1, with “In” for “Thus, the peptide transport mutant PB1X-9B and deletion strain PB1X-2AΔ transformed with plasmids pPTF4 (ATPTR2A) or pDTF1 (ATPTR2B) were grown on various peptides to assess the specificity of the plant peptide transporter. In”

The next assay concerns PB1X-9B (pJP9). The assay can be described thus: Growth on peptides, mutant transformed with yeast peptide transport gene. Format: cell-based, Saccharomyces cerevisiae. As to the method:
as §1, with “In” for “Thus, the peptide transport mutant PB1X-9B and deletion strain PB1X-2AΔ transformed with plasmids pPTF4 (ATPTR2A) or pDTF1 (ATPTR2B) were grown on various peptides to assess the specificity of the plant peptide transporter. In”

In a further assay the test system is PB1X-9B. As to the kind of experiment: Growth on peptides as amino acid source, peptide transport mutant. The class given is cell-based, Saccharomyces cerevisiae. The note with it: PBIX-9B; 80 μM peptide in SC medium, 30° C., 72 hrs. As to the method: as §1, with “In” for “Thus, the peptide transport mutant PB1X-9B and deletion strain PB1X-2AΔ transformed with plasmids pPTF4 (ATPTR2A) or pDTF1 (ATPTR2B) were grown on various peptides to assess the specificity of the plant peptide transporter. In”

A further assay concerns ATPTR2Ap. The assay can be described thus: Uptake of L-leucyl-L-[3H]leucine and competition, PB1X-9B[pPTF4]. Particulars: PB1X-9B[pPTF4]; pH 5.5; dileucine and leucine at 100-fold.
Assay [1] has as its target T1, yeast peptide transport system (Saccharomyces cerevisiae, UniProt P32901).
T1 construct: The ptr2 gene encodes a 602 amino acid hydrophobic polypeptide with 12 putative hydrophobic segments; expressed in transfected cells; host or cells: S. cerevisiae peptide transport mutant PB1X-9B (ptr2-2) transformed with pJP9
T1 sequence (P32901 1-601): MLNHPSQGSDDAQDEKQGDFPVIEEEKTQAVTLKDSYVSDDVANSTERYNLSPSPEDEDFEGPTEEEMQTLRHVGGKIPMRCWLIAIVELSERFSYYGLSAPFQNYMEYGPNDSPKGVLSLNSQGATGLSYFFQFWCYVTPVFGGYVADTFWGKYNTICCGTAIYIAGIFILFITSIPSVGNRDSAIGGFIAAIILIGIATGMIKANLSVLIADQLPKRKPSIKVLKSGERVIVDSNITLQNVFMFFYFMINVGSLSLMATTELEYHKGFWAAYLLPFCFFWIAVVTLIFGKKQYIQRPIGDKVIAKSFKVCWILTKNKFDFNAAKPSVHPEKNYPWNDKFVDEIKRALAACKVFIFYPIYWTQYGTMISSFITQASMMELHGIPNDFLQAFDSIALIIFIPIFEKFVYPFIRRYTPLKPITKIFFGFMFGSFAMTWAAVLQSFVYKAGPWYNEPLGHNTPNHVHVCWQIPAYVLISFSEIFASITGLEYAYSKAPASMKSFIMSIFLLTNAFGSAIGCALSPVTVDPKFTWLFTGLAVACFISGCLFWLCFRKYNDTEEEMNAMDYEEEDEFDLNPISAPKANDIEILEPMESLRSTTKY
The assay can be described thus: Competition for L-leucyl-L-[3H]leucine uptake, PB1X-9B[pJP9]. The note with it: pH 5.5. The class given is cell-based. As to the method:
L-leucyl-L [^3 H]leucine trifluoroacetic acid (TFA) was synthesized by standard solution phase techniques (Naider, F. et al., J. Biol. Chem. 249:9-20 (1974)). Uptake of L-leucyl-L-[H]leucine was performed as by Island, M. D. et al (J. Bacteriol. 169:2132-2136 (1987)), with the following modifications. Cells were grown to late log phase (26×10^7 cells/ml) overnight in SC with 2% glucose, 1 mg/ml allantoin plus amino acids to supplement auxotrophic markers. To induce peptide transport. 5-15 ml from this culture was added to 100 ml fresh medium such that the density was 3.0×10^6 cells/ml. This culture was allowed to grow (approx. 2 hrs.) to a density of 6.0×10^6 cells/ml and then harvested by centrifugation. The pelleted cells were washed twice with 10 ml cold dH2 O and suspended in cold 2% glucose to a final concentration of 2×10^8 cells/ml and incubated at 30° C. for 15 min. 500 μl of cells were then added to an equal volume of reaction mixture (30° C.) and incubated at 30°-C. At 20, 40, 60, 90, and 120 sec. intervals, 190 μl portions were removed, filtered over filters (pore size, 0.45 μm; GN-6; Gelman Sciences, Inc., Ann Arbor, Mich.) and washed 2 times with 5 ml cold, sterile dH2 O and once with 5 ml dH2 O at room temperatures. Filters were placed in scintillation vials with 5 ml of Budget-Solve scintillation cocktail (Research Products International Corp., Mount Prospect, Ill.) and counted (liquid scintillation counter; LS-7000; Beckman Instruments, Inc., Fullerton, Calif.). The final concentration of the components in the uptake assay was 1% glucose, 40 mM sodium citrate-potassium phosphate buffer (pH 5.5), and 1.5×105 M L-leucyl-L-[^3 H]leucine (specific activity, 10 mCi/mmole). Uptake is expressed as nanomoles per mg dry weight.

ATPTR2Ap, sequence (as listed by the source): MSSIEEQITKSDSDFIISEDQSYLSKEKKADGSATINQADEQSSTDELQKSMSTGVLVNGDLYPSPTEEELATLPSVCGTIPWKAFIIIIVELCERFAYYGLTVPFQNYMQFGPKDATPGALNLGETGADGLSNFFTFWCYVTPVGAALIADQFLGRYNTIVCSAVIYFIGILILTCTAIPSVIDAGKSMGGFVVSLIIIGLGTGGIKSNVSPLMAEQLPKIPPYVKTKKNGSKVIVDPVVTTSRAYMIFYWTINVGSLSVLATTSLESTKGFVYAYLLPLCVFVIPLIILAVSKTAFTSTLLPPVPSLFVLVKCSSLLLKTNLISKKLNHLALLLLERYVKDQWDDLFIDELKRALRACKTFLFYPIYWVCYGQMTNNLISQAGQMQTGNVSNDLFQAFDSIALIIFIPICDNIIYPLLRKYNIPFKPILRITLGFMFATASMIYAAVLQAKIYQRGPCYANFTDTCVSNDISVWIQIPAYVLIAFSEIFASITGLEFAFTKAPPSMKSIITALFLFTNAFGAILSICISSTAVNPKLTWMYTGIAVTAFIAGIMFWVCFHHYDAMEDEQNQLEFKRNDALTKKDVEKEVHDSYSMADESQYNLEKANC

As for Met-Met-Leu: tripeptide (MML), the “utilization of peptide for growth (in words)” value with PB1X-2A is reported as “did not utilize”. Further, the growth on peptide result is “-” in the assay on PB1X-9B (pPTF4) (PBIX-9B (pPTF4), 80 μM peptide in SC medium, 30° C., 72 hrs); “-” in the assay on PB1X-9B (pJP9) (PBIX-9B (pJP9), 80 μM peptide in SC medium, 30° C., 72 hrs); “-” with PB1X-9B. Besides, in the assay on PB1X-9B (pPTF4) (plant peptide transport gene (pPTF4)), the “growth on / utilization of peptide (in words)” value is recorded as “able to utilize”. For the same substance, the “growth on peptide (in words)” value with PB1X-9B (pJP9) (PB1X-9B transformed with pJP9) is on record as “showed growth on all peptides except”. For the same substance, the “competition for uptake of [3H]-dileucine” value (in the assay with ATPTR2Ap; in assay [1]) was “uptake competition similar to that seen for Leu-Leu” each time.
